Results as given in ChEMBL document CHEMBL1909046, “DrugMatrix in vitro pharmacology data”.

Assays:
[1] = target: Cytochrome P450 3A4 (Homo sapiens, UniProt P08684); settings: bti-tn-5b1-4; also: in other assays of this panel Not Active means under 50% inhibition at 10 µM
[2] = target: Estrogen receptor beta (Homo sapiens, UniProt Q92731); settings: sf9; also: in other assays of this panel Not Active means under 50% inhibition at 10 µM
[3] = target: T1, C-X-C chemokine receptor type 2 (Homo sapiens, UniProt P25025); format: cell membranes, Membrane; settings: cho-k1; also: in other assays of this panel Not Active means under 50% inhibition at 10 µM
T1 sequence (P25025 whole entry): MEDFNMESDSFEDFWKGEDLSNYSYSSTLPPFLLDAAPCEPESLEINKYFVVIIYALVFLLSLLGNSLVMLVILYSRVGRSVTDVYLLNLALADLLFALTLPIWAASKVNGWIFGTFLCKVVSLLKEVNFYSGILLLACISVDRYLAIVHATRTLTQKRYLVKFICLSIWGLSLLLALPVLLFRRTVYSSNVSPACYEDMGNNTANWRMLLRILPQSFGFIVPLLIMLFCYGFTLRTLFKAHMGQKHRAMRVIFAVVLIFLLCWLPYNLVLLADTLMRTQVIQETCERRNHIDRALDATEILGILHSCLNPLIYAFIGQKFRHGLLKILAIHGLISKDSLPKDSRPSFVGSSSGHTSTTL

[4] = target: T2, 5-hydroxytryptamine receptor 2C (Homo sapiens, UniProt P28335); test: DRUGMATRIX: Serotonin (5-Hydroxytryptamine) 5-HT2C radioligand binding (ligand: [3H] Mesulergine); format: cell membranes, CHO-K1, Membrane; settings: Not Active = under 50% inhibition at 10 µM; for Ki: read-out: Ki
T2 sequence (P28335 whole entry): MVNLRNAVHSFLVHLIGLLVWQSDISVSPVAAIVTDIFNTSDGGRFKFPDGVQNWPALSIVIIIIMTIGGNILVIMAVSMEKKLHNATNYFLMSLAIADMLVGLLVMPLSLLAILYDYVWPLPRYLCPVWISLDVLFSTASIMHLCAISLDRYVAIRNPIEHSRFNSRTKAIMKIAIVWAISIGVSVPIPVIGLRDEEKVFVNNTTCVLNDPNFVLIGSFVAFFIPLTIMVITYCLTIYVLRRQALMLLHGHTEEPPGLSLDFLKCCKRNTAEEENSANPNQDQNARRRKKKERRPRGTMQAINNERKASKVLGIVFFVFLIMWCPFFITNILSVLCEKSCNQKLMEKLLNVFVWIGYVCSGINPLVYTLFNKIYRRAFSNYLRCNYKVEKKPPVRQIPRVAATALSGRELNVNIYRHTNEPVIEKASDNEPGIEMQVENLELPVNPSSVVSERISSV

[5] = target: Adenosine receptor A2a (Homo sapiens, UniProt P29274); test: DRUGMATRIX: Adenosine A2A radioligand binding (ligand: […]); format: cell membranes, HEK293, Membrane; settings: hek293; Not Active = under 50% inhibition at 10 µM
Sequence of Adenosine receptor A2a (P29274 whole entry): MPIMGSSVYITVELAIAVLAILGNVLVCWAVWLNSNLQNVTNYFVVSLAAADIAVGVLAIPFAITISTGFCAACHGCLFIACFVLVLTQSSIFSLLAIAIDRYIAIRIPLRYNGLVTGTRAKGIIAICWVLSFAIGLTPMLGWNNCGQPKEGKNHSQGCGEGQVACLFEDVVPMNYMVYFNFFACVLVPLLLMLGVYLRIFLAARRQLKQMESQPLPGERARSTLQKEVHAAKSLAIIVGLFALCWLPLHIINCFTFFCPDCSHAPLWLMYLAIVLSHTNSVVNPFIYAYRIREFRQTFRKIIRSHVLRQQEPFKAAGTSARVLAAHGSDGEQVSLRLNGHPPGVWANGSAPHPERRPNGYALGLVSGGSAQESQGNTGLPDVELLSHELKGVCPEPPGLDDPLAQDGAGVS

[6] = target: C-C chemokine receptor type 5 (Homo sapiens, UniProt P51681); format: cell membranes, Membrane; settings: hek293; also: in other assays of this panel Not Active means under 50% inhibition at 10 µM
Sequence of C-C chemokine receptor type 5 (P51681 whole entry): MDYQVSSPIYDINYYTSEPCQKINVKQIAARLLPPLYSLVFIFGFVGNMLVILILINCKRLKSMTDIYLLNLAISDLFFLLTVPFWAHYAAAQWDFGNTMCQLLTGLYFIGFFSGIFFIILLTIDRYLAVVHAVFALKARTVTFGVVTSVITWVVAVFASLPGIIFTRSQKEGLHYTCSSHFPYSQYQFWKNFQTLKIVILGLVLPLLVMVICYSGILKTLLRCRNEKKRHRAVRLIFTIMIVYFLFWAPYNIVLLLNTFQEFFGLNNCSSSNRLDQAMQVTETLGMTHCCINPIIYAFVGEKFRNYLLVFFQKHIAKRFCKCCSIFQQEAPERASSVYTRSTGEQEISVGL

[7] = target: Melanocortin receptor 5 (Homo sapiens, UniProt P33032); format: cell membranes, HEK293, Membrane; also: in other assays of this panel Not Active means under 50% inhibition at 10 µM
Sequence of Melanocortin receptor 5 (P33032 whole entry): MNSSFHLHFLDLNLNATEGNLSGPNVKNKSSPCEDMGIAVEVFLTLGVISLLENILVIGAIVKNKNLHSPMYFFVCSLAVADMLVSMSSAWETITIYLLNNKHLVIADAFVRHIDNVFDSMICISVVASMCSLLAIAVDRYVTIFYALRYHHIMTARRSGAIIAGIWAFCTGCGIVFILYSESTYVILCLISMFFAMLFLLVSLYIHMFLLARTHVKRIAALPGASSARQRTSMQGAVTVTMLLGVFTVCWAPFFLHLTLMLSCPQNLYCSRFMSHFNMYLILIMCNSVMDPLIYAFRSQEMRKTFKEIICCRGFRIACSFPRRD

Sequence of Cytochrome P450 3A4 (P08684 whole entry): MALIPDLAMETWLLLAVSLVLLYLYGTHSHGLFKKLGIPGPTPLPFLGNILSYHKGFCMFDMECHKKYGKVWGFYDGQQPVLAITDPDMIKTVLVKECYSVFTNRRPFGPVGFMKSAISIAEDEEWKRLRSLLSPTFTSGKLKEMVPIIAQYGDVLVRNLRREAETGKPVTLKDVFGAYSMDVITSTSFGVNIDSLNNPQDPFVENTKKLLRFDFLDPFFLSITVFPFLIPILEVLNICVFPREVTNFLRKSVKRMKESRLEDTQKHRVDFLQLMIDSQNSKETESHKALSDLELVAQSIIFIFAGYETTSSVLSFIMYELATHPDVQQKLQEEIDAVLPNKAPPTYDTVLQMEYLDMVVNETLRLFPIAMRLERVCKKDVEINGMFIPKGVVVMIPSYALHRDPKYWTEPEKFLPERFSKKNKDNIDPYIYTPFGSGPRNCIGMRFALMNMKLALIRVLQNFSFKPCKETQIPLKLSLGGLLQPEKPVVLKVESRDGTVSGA
Sequence of Estrogen receptor beta (Q92731 whole entry): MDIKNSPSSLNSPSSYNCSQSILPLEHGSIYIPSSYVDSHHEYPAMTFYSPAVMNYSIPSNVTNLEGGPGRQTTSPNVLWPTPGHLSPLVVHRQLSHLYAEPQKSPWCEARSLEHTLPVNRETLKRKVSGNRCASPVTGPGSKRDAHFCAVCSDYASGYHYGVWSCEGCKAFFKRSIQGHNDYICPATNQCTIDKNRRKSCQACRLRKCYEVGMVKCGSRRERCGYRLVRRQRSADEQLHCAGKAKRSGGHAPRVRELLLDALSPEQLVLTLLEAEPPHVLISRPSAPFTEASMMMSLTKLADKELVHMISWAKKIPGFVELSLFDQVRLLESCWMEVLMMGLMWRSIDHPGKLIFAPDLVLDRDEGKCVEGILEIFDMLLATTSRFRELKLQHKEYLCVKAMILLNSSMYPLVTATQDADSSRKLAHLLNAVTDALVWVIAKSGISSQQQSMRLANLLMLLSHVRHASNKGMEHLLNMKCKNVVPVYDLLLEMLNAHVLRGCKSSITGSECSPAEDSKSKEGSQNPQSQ

Row | Structure (SMILES) | IC50 [1] | Ki [1] | IC50 [2] | IC50 [3] | IC50 ([4]; cho-k1) | IC50 [5] | IC50 [6] | IC50 ([7]; hek293) | IC50 ([4]; read-out: IC50) [µM] | Ki [4] [µM] | IC50 ([7]; read-out: IC50) [µM] | Ki ([7]; read-out: Ki) [µM]
1 | CCCCC(=O)N(Cc1ccc(-c2ccccc2-c2nnn[nH]2)cc1)[C@H](C(=O)O)C(C)C | Not Active | Not Active | Not Active | Not Active | Not Active | Not Active | Not Active | Not Active | – | – | – | –
2 | O=C(O)COc1ccc(C(=O)c2cccs2)c(Cl)c1Cl | Not Active | Not Active | Not Active | Not Active | Not Active | Not Active | Not Active | Not Active | – | – | – | –
3 | CN1[C@@H]2CC[C@H]1C[C@@H](OC(c1ccccc1)c1ccccc1)C2 [BENZTROPINE] | Not Active | Not Active | Not Active | Not Active | – | Not Active | Not Active | Not Active | 0.061 | 0.032 | – | –
4 | C[C@@](Cc1ccc(O)c(O)c1)(NN)C(=O)O.O [CARBIDOPA] | Not Active | Not Active | – | Not Active | Not Active | Not Active | Not Active | Not Active | – | – | – | –
5 | CN1CCN(C2=Nc3cc(Cl)ccc3Nc3ccccc32)CC1 [CLOZAPINE] | – | – | Not Active | Not Active | – | Not Active | Not Active | Not Active | – | – | – | –
6 | CC(C)NC[C@@H](O)COc1cccc2ccccc12 [DEXPROPRANOLOL] | Not Active | Not Active | Not Active | Not Active | Not Active | Not Active | Not Active | Not Active | – | – | – | –
7 | CC(C)NC[C@H](O)COc1cccc2ccccc12 [LEVOPROPRANOLOL] | Not Active | Not Active | Not Active | Not Active | – | Not Active | Not Active | Not Active | – | – | – | –
8 | O=C(O)CCCCC1CCSS1 (stereo not drawn) [LIPOIC ACID, ALPHA] | Not Active | Not Active | Not Active | Not Active | Not Active | Not Active | Not Active | Not Active | – | – | – | –
9 | CN(C)C(=O)C(CCN1CCC(O)(c2ccc(Cl)cc2)CC1)(c1ccccc1)c1ccccc1 [LOPERAMIDE] | Not Active | Not Active | Not Active | Not Active | Not Active | Not Active | Not Active | Not Active | – | – | – | –
10 | Clc1ccc(COC(Cn2ccnc2)c2ccc(Cl)cc2Cl)c(Cl)c1 (stereo unspecified) [MICONAZOLE] | – | – | Not Active | Not Active | – | – | Not Active | – | 5.31 | 2.78 | 22.6 | 21.2
11 | Oc1ccc2c3c1O[C@H]1[C@@H](O)CC[C@@]4(O)[C@@H](C2)N(CC2CCC2)CC[C@]314 [NALBUPHINE] | – | – | Not Active | Not Active | Not Active | Not Active | Not Active | Not Active | – | – | – | –
12 | C[C@]12C=CC(=O)C=C1CC[C@@H]1[C@@H]2C(=O)C[C@@]2(C)[C@H]1CC[C@]2(O)C(=O)CO [PREDNISONE] | – | – | Not Active | Not Active | Not Active | Not Active | Not Active | Not Active | – | – | – | –
13 | OCCOCCN1CCN(C2=Nc3ccccc3Sc3ccccc32)CC1 [QUETIAPINE] | Not Active | Not Active | Not Active | Not Active | – | Not Active | Not Active | Not Active | – | – | – | –
14 | COC(=O)[C@H]1[C@H]2C[C@@H]3c4[nH]c5cc(OC)ccc5c4CCN3C[C@H]2C[C@@H](OC(=O)c2cc(OC)c(OC)c(OC)c2)[C@@H]1OC [RESERPINE] | Not Active | Not Active | – | Not Active | Not Active | Not Active | Not Active | Not Active | – | – | – | –
